Data reported in ChEMBL document CHEMBL1201862, “PubChem BioAssay data set” (2004).
Activity calls are given as the source filed them. Cut-off read from the data, not from the text of the source: actives have a measured IC50 and inactives only a lower limit.

Target: Envelope glycoprotein gp160 (Human immunodeficiency virus 1, UniProt Q6QLK5)
Assay: inhibitors of HIV fusion peptide binding, primary screen, biochemical, uHTS, fluorescence dequenching (AID 1986)

Sequence of Envelope glycoprotein gp160 (Q6QLK5 whole entry, the tested form may be a part): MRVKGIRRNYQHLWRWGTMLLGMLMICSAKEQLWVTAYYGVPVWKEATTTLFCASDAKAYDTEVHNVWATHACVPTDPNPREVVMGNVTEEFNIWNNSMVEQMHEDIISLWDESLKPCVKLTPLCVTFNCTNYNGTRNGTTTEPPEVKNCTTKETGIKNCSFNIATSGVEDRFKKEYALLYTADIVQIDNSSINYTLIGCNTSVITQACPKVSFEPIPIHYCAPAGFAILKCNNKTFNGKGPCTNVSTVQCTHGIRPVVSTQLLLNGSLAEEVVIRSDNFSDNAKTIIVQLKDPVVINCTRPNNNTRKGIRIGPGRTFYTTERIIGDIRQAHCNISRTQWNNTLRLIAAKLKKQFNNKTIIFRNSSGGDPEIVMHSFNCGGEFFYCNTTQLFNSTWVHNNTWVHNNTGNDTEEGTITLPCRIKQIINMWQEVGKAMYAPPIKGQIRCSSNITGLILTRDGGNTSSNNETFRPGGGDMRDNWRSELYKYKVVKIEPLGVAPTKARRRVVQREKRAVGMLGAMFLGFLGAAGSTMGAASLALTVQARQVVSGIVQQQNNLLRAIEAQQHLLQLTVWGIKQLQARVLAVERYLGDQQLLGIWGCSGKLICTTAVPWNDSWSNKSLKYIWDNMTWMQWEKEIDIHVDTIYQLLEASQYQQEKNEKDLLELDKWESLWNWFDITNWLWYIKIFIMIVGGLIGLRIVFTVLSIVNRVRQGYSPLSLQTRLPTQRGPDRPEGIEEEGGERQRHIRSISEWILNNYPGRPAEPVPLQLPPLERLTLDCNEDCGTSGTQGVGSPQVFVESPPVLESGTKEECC

Row | Structure (SMILES) | IC50
1 | O=C(Nc1cccc(C(F)(F)F)c1)c1cccc(NS(=O)(=O)c2ccc(O)c(C(=O)O)c2)c1 | 8.83 µM (active)
2 | COC(=O)c1sc(-c2ccc(C(C)(C)C)cc2)cc1NC(=O)COCC(=O)O | 20.9 µM (active)
